# Data as given in paper PMC6130634 (Pharmaceutical Biology, 2017).
# Legend:
# [1] = Stability of ChA in beagle faeces under various storage conditions; format: in vitro ADME
# [2] = Stability of ChA in beagle urine under various storage conditions; format: in vitro ADME
# [3] = Oral pharmacokinetics of ChA in beagle plasma; format: in vivo, beagles; details: dog, 60 mg/kg
smiles,measurement,setting,value
"O=C(/C=C/c1ccc(O)c(O)c1)O[C@@H]1C[C@](O)(C(=O)O)C[C@@H](O)[C@H]1O [ChA, Chlorogenic acid]",time ChA was stable,"[1]; faeces, room temperature",≥ 6 h
same,time ChA was stable,"[1]; faeces, −70 °C",≥ 170 h
same,time ChA was stable,"[1]; processed faeces, 4 °C",at least 8 h
same,time ChA was stable,"[2]; processed urine, 4 °C",at least 8 h
same,time ChA was stable,"[2]; urine, room temperature",≥ 6 h
same,time ChA was stable,"[2]; urine, −70 °C",at least 20 d
same,AUC(0-inf),[3],6320 ± 1850 ng·h/mL
same,AUC(0-t),[3],5590 ± 1410 ng·h/mL
same,Cmax,[3],2350 ± 483 ng/mL
same,Tmax,[3],1.86 ± 0.499 h
same,half-life,[3],54.7 ± 11.2 min
